Results as given in paper PMC6934184, “Selective DNA-PKcs inhibition extends the therapeutic index of localized radiotherapy and chemotherapy” (The Journal of Clinical Investigation, 2019).

Molecular target: T1, CSNK2A2 (CK2 alpha 2) (Homo sapiens, UniProt P19784)
T1 construct: purchased Thermo Fisher Scientific (Life Technologies) SelectScreen
Assay: SelectScreen Z'LYTE
Assay type: biochemical
Method in brief: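 Compound tested in SelectScreen activity assays, Z'LYTE for CSF1R, CDK1/cyclin B and MAP2K6 and Adapta for CAMK1. ATP for CAMK1 was listed as 10, and Km app was used for CSF1R. Results are expressed in percent.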

T1 sequence (P19784 whole entry): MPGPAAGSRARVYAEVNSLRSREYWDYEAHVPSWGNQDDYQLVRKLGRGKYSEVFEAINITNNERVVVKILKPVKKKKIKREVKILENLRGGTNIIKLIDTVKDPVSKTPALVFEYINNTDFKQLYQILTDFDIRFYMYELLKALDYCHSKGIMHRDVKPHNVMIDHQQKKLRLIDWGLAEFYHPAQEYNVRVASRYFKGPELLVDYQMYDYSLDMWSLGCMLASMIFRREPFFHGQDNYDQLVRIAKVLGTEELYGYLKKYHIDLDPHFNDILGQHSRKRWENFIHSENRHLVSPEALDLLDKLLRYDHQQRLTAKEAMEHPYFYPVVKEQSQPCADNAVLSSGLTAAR

`CN(C(=O)CN1CCOCC1)c1ccc2sc3c(-c4cccc5c(=O)cc(N6CC7CCC(C6)O7)oc45)cccc3c2c1` [NU5455] showed an inhibition at 1 µM of 8.7%.
